This note sets out measurements from patent US10273257B2, “Cancer cell-containing composition” (KING FAHD UNIVERSITY OF PETROLEUM AND MINERALS, priority 2016, dated 2019).

Several values for one entry are separate records, joined by “and”; a condition that tells them apart may be missing. Equal entries are not always repeated.

One experiment concerns MDA-MB231 cells. Description: MTT assay for anticancer activity, MDA-MB231 cells. It counts as cell-based, human. Conditions: MDA-MB231 breast cancer cells, 3-day exposure protocol. How it is done: (§1) Human breast cancer cells (MDA-MB231, MCF-7) were grown in Dulbecco's modified Eagle's medium (DMEM) supplemented with 10% fetal bovine serum (FBS) and 1% penicillin (10,000 units) with streptomycin (10 mg) in a 74 cm^2 flask and incubated until 80% confluence was obtained in a humidified environment of 5% CO2-95% air at 37° C.
(§2) Cancer cells were seeded and maintained in quadruplicate in a 96-well tissue culture plate at 5×10^3 cells per well in 150 μl of the same medium. The cancer cells were incubated for 24 hours before the treatment. All compounds were dissolved in 50% DMSO. Therefore, DMSO was used as a negative control. Complexes 1-5 and cisplatin (positive control) at 0.01 μM, 0.05 μM, 0.1 μM, 1 μM, 5 μM, 10 μM, and 50 μM concentrations were prepared in DMEM. The final DMSO concentration, in each well, was less than 0.1%.
(§3) The cancer cells were treated with the synthesized compounds 1-5 and cisplatin and then incubated for […]. The medium from the wells was discarded and 100 μL of DMEM containing MTT (3-(4,5-dimethylthiazol-2-yl)-2,5-diphenyltetrazolium bromide) (5 mg/mL) was added to the wells. The cells were incubated in a CO2 incubator at 37° C. in the dark for 4 h. After incubation, a purple colored formazan (an artificial chromogenic dye, a product of the reduction of water […] tetrazolium salts, such as MTT, by dehydrogenases and reductases) was produced by the cells and appeared as dark crystals in the bottom of the wells. The medium from each well was discarded carefully to avoid disruption of the monolayer. 100 μL of isopropanol was added in each well. The solution was thoroughly mixed in the wells to dissolve the formazan crystals which ultimately results into a purple solution. The absorbance of the 96-well plate was taken at 570 nm with Mithras^2LB943 against a blank (e.g. unreduced MTT in isopropanol). All data presented are mean t standard deviation.
(§4) The in vitro cytotoxic effect of mixed ligand gold(I) complexes 1-5 against MDA-MB231 and MCF-7 were studied using the MTT assay. The in vitro cytotoxic activity depends on the exposure time and the concentrations of the complexes. For that reason, different concentrations of the complexes and a 3-day exposure protocol to determine the IC50 values for all five complexes and cisplatin were used.
Background: Tetrazolium assays rely on reduction of a dye to a coloured formazan, in cell work by metabolically active cells.

The subject of another experiment is MCF-7 cells. Description: MTT assay for anticancer activity, MCF-7 cells. It counts as cell-based, human. Particulars: MCF-7 breast cancer cells, 3-day exposure protocol. On the procedure: as §1, §2, §3, §4
The next experiment relates to CT-DNA. In words: Fluorescence emission titration with CT-DNA (Scatchard). Format: binding, calf. Particulars: complex 1.3×10^−4 M, excitation 275 nm, Tris-HCl/NaCl buffer, mean standard deviations ±0.07. How it is done:
Fluorescence experiments were carried out at a constant concentration of the complexes with increasing CT-DNA concentrations. The binding constant, K, of the gold(I) complexes was determined from Scatchard eqs. (2) and (3) by employing emission titration (Liu, D. G.; Liao, P. J.; Fang, Z. Y.; Huang, S. S.; Sheng, L. G.; Yu, Q. R. Interaction of bis(ethylene)tin(bis(salicylidene)ethylenediamine) with DNA. Anal. Sci. 2002, 18 391-395; and Healy, F. E. Quantitative determination of DNA-ligand binding using fluorescence spectroscopy. J. Chem. Educ. 2007, 84, 1304-1307, each incorporated herein by reference in their entirety). CF=CT(I/Io−P)(1−P) (2) r/CF=K(n−r) (3) where CF is the free probe (i.e. free metal complex) concentration, CT is the total concentration of the probe added, I and Io are fluorescence intensities in the presence and absence of CT-DNA, respectively, r denotes a ratio of CB (CB=CT−CF) to the DNA concentration, i.e., the bound probe concentration to the DNA concentration, K is the binding constant, “n” is the binding site number, and P is the ratio of the observed fluorescence quantum yield of the bound probe to that of the free probe. The value P was obtained as the intercept by extrapolating from a plot of I/Io vs. 1/[DNA].
The fluorescence emission titration of complexes 1-5 was carried out in order to understand the nature of binding mode of these complexes with CT-DNA. This method is highly sensitive, reproducible, and accurate. In the absence of CT-DNA, all complexes 1-5 (concentration=1.3×10^−4 M) emitted strong luminescence when excited at 275 nm in Tris-HCl/NaCl buffer with an emission maximum appearing at 340 nm. However, the subsequent addition of CT-DNA from 0.067-0.5×10^−4 M caused a gradual enhancement in the fluorescence intensity of the complexes with no apparent change in the shape and position of the emission bands (FIGS. 10A-10E), which is indicative of a strong interaction of the Au(I) drug entities with CT DNA. The hydrophobic molecular structure of CT DNA could be responsible for enhancing the fluorescence quantum yield of complexes, leading to the higher fluorescence intensity with increasing concentration of CT DNA. In addition, energy transfer from CT-DNA to metal complexes could also induce fluorescence enhancement (Arjmand, F.; Jamsheera, A.; Afzal, M.; S. Tabassum, S. Enantiomeric Specificity of Biologically Significant Cu(II) and Zn(II) Chromone Complexes Towards DNA. Chirality. 2012, 24, 977-986, Tabassum, S.; Yadav, S.; Arjmand, F. Synthesis and mechanistic insight of glycosylated Cu^II/Ni^II—Sn2^IV heterobimetallic DNA binding agents: Validation of a specific Cu^II—Sn2^IV chemotherapeutic agent for human leukemic cell line K-562. J. Organomet. Chem. 2013, 745-746, 226-234, incorporated herein by reference in its entirety).

For experiment [1], the system named is EB-DNA system (CT DNA treated with EB). Description: Ethidium bromide displacement fluorescence quenching (Stern-Volmer). It counts as binding, calf. Conditions: EB-bound CT DNA, emission at 585-590 nm. How it is done: Luminescence titrations involving quenching experiments were conducted by adding increasing concentration of the complexes to a fixed concentration of EB-DNA system. The Tris-HCl buffer was used as a blank to make preliminary adjustments. The Stern-Volmer quenching constant, Ksv was obtained from the following equation (Lakowiez, R. J.; Webber, G. Quenching of fluorescence by oxygen. Probe for structural fluctuations in macromolecules. Biochem. 1973, 12, 4161-4170, incorporated herein by reference in its entirety). I0/I=1+KSV·r (4) where r is the ratio of total concentration of complex to that of DNA, and Io and I are the fluorescence intensities of EB in the absence and presence of complex.
A reliable method for studying the binding of molecules to nucleic acids is the fluorescence quenching method. Ethidium bromide (EB) is a planar cationic dye which is widely used as a sensitive fluorescence probe for native DNA. EB emits intense fluorescent light in the presence of DNA due to its strong intercalation between the adjacent DNA base pairs. The displacement technique is based on the decrease of fluorescence resulting from the displacement of EB from a DNA sequence by a quencher, and the quenching is due to the reduction of the number of binding sites on the DNA that are available to the EB (Ramachandran. E.; Raja, S. D.; Bhuvanesh, P. S. N.; Natarajan, K. Mixed ligand palladium(II) complexes of 6-methoxy-2-oxo-1,2-dihydroquinoline-3-carbaldehyde 4N-substituted thiosemicarbazones with triphenylphosphine co-ligand: Synthesis, crystal structure and biological properties. Dalton Trans. 2012, 41 13308-13323, incorporated herein by reference in its entirety). […] From the above data, it is clear that 4 replaces EB more effectively than other complexes, and this observation agreed with the results obtained from electronic absorption studies.

In general, IC50 refers to the midpoint of a concentration-inhibition curve. For `CCN(CC)C(=S)[S][Au-][P+](C)(C)C` [Complex 3, (Me)3PAu(S2CN{Et}2)], the IC50 with MDA-MB231 cells amounted to 0.043 µM; in the experiment with MCF-7 cells, 0.0088 µM. Also, in the experiment on CT-DNA, the “Scatchard binding constant K” value amounted to 57000 M⁻¹. For the same compound, in experiment [1], the “Stern-Volmer quenching constant KSV” value is reported as 0.67.

`CC(C)[P+]([Au-][S]C(=S)N(C)C)(C(C)C)C(C)C` [Complex 5, (i-Pr)3PAu(S2CN{Me}2)]: the IC50 was 0.7 µM with MDA-MB231 cells; 0.0078 µM and 0.0079 µM in the experiment on MCF-7 cells. In addition, the “Scatchard binding constant K” value in the experiment with CT-DNA turned out to be 19000 M⁻¹. In addition, the “Stern-Volmer quenching constant KSV” value in experiment [1] came to 0.10.

As for `CN(C)C(=S)[S][Au-][P+](C)(C)C` [Complex 1, (Me)3PAu(S2CN{Me}2)], the IC50 with MDA-MB231 cells is 0.044 µM; in the experiment with MCF-7 cells it was 0.0078 µM. Besides, the “Scatchard binding constant K” value with CT-DNA came to 28000 M⁻¹. Besides, the “Stern-Volmer quenching constant KSV” value in experiment [1] is recorded as 0.19.

On to `N.N.[Cl][Pt][Cl]` [Cisplatin, reference compound], for which the half-maximal inhibitory concentration (IC50) stood at 25.8 µM in the experiment on MDA-MB231 cells and 0.0059 µM in the experiment with MCF-7 cells.

Consider `CCN(CC)C(=S)[S][Au-][P+](CC)(CC)CC` [Complex 4, (Et)3PAu(S2CN{Et}2)], for which the IC50 in the experiment with MDA-MB231 cells worked out at 0.044 µM; in the experiment with MCF-7 cells, 0.0053 µM. The “Scatchard binding constant K” value in the experiment with CT-DNA was determined as 66000 M⁻¹. Also, the “Stern-Volmer quenching constant KSV” value in experiment [1] came out at 0.91.

On to `CC[P+](CC)(CC)[Au-][S]C(=S)N(C)C` [Complex 2, (Et)3PAu(S2CN{Me}2)], for which the IC50 is 0.055 µM in the experiment with MDA-MB231 cells and 0.0064 µM with MCF-7 cells. Moreover, the “Scatchard binding constant K” value with CT-DNA was found to be 35000 M⁻¹. The “Stern-Volmer quenching constant KSV” value in experiment [1] is listed as 0.34.
